Assay results published in US20210300936A1, “PYRAZOLOTRIAZOLOPYRIMIDINE DERIVATIVES AS A2A RECEPTOR ANTAGONIST” (BEIGENE, LTD., priority 2018, published 2021).

Molecular target: human A2A receptor (A2AR) (Homo sapiens, UniProt P29274)
Assay: Luciferase reporter assay (HEK293-A2AR-luc2p/CRE/Hygro cells, 3 nM CGS21680)
Type: cell-based
Conditions: 3 nM CGS21680, 5 h incubation
Experimental: HEK293 cells were maintained in Dulbecco's modified Eagle's medium (DMEM, Gibco) supplemented with 10% fetal bovine serum (FBS, Thermo Scientific), 100 units/mL penicillin (Gibco), and 0.1 mg/mL streptomycin (Gibco) in a humidified 37° C. environment with 5% C02. Plasmid encoding wild-type human A2A receptor (A2AR) (in pcDNA3.1) was synthesized by Genscript (Nanjing, China). Transfection of the plasmids was performed in 6-well plates with 4×10^5 cells using Lipofectamin 2000 (ThermoFisher Scientific) according to the instruction of the manufacturer. Cell clones that stably express A2AR were established and maintained in the same complete medium as the HEK293 cells in addition of G-418 (Gibico). Expression level of A2AR in each single cell clone was determined using immunoblotting and FACS method. HEK293-A2AR stable cells were then transfected with pGL4.29[luc2P/CRE/Hygro] (Promega) luciferase reporter plasmid for establishing the HEK293-A2AR-luc2p/CRE/Hygro stable cell line.
HEK293-A2AR-luc2p/CRE/Hygro cells were seeded at a density of 5,000 cells/well in DMEM with 1% FBS and 1 U/mL adenosine deaminase (ADA) (Sigma). After 18 h, the cells were treated with 3 nM CGS21680 plus a series dilution of A2AR antagonist, the compounds disclosed herein at the concentration of 0.1˜10000 nM, prepared in DMEM with 1% FBS. After 5 h incubation, the luciferase activity in cells were measured using the Bright-Glo Luciferase Assay System (Promega) according to manufacturer's instructions. The luminescence signal was measured using a PHERAstar FS plate reader (BMG Labtech). […] Maximal luminescence intensity was determined in the presence of 3 nM CGS21680 and was set as 100%. The IC50 value was calculated from a dose dependent inhibition curve across the range of compound concentrations.

human A2A receptor (A2AR), sequence (P29274 whole entry): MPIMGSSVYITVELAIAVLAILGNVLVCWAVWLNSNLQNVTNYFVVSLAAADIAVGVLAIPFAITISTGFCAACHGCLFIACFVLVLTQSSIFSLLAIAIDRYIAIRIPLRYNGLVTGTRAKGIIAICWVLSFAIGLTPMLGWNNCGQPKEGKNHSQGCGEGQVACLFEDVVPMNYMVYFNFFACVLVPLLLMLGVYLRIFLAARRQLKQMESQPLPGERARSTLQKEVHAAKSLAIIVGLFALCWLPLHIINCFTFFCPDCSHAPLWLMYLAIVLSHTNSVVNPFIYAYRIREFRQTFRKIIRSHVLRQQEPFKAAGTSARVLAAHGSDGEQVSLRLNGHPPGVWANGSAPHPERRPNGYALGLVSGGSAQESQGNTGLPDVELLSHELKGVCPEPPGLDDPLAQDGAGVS

| Compound | IC50 [nM] |
| --- | --- |
| CCCC(C(=O)N1CCN(c2ccc(OCCOCCOC)cc2)CC1)n1ncc2c1nc(N)n1nc(-c3ccco3)nc21 (single isomer, unassigned) [Compound A6b, 2-(5-amino-2-(furan-2-yl)-7H-pyrazolo[4,3-e][1,2,4]triazolo[1,5-c]pyrimidin-7-yl)-1-(4-(4-(2-(2-methoxyethoxy)ethoxy)phenyl)piperazin-1-yl)pentan-1-one] | 135 |
| COCCOc1ccc(N2CCN(C(=O)C(c3ccc(C(F)(F)F)cc3)n3ncc4c3nc(N)n3nc(-c5ccco5)nc43)CC2)cc1 (stereo not drawn) [Compound A34, 2-(5-amino-2-(furan-2-yl)-7H-pyrazolo[4,3-e][1,2,4]triazolo[1,5-c]pyrimidin-7-yl)-1-(4-(4-(2-methoxyethoxy)phenyl)piperazin-1-yl)-2-(4-(trifluoromethyl)phenyl)ethan-1-one] | 75.7 |
| COCCOCCOc1ccc(N2CCN(C(=O)C(CC(C)C)n3ncc4c3nc(N)n3nc(-c5ccco5)nc43)CC2)cc1 (stereo not drawn) [Compound A17, 2-(5-amino-2-(furan-2-yl)-7H-pyrazolo[4,3-e][1,2,4]triazolo[1,5-c]pyrimidin-7-yl)-1-(4-(4-(2-(2-methoxyethoxy)ethoxy)phenyl)piperazin-1-yl)-4-methylpentan-1-one] | 1.1 |
| CC(C(=O)N1CCN(c2ccc(OCCCN3CCCCC3)cc2)CC1)(c1ccccc1)n1ncc2c1nc(N)n1nc(-c3ccco3)nc21 (stereo not drawn) [Compound A85, 2-(5-amino-2-(furan-2-yl)-7H-pyrazolo[4,3-e][1,2,4]triazolo[1,5-c]pyrimidin-7-yl)-2-phenyl-1-(4-(4-(3-(piperidin-1-yl)propoxy)phenyl)piperazin-1-yl)propan-1-one] | 11.6 |
| CN1CCN(CCOc2ccc(N3CCN(C(=O)[C@](C)(c4ccccc4)n4ncc5c4nc(N)n4nc(-c6ccco6)nc54)CC3)cc2)CC1 [Compound A81a, (S)-2-(5-amino-2-(furan-2-yl)-7H-pyrazolo[4,3-e][1,2,4]triazolo[1,5-c]pyrimidin-7-yl)-1-(4-(4-(2-(4-methylpiperazin-1-yl)ethoxy)phenyl)piperazin-1-yl)-2-phenylpropan-1-one] | 7.9 |
| COCCOc1ccc(N2CCN(C(=O)C(c3ccccc3)n3ncc4c3nc(N)n3nc(-c5ccco5)nc43)CC2)cc1F (stereo not drawn) [Compound A55, 2-(5-amino-2-(furan-2-yl)-7H-pyrazolo[4,3-e][1,2,4]triazolo[1,5-c]pyrimidin-7-yl)-1-(4-(3-fluoro-4-(2-methoxyethoxy)phenyl)piperazin-1-yl)-2-phenylethan-1-one] | 2.3 |
| COCCOc1ccc(N2CCN(C(=O)C(c3ccccc3)n3ncc4c3nc(N)n3nc(-c5ccco5)nc43)[C@@H](C)C2)cc1 (stereo partly drawn) [Compound A52, 2-(5-amino-2-(furan-2-yl)-7H-pyrazolo[4,3-e][1,2,4]triazolo[1,5-c]pyrimidin-7-yl)-1-((S)-4-(4-(2-methoxyethoxy)phenyl)-2-methylpiperazin-1-yl)-2-phenylethan-1-one] | 8.7 |
| CC(C)CC(C(=O)N1CCN(c2ccc(F)cc2F)CC1)n1ncc2c1nc(N)n1nc(-c3ccco3)nc21 (stereo not drawn) [Compound A22, 2-(5-amino-2-(furan-2-yl)-7H-pyrazolo[4,3-e][1,2,4]triazolo[1,5-c]pyrimidin-7-yl)-1-(4-(2,4-difluorophenyl)piperazin-1-yl)-4-methylpentan-1-one] | 1.5 |
| COCCOc1ccc(N2CCN(C(=O)C(c3ccccc3)n3ncc4c3nc(N)n3nc(-c5ccco5)nc43)CC2)c(F)c1 (single isomer, unassigned) [Compound A44a] | 39.2 |
| CCCC(C(=O)N1CCN(c2ccc(OCCN(C)C)cc2)CC1)n1ncc2c1nc(N)n1nc(-c3ccco3)nc21 (single isomer, unassigned) [Compound A39a] | 127 |
| COCCOCCOc1ccc(N2CCN(C(=O)C(CC(C)C)n3ncc4c3nc(N)n3nc(-c5ccco5)nc43)CC2)cc1 (single isomer, unassigned) [Compound A17a] | 0.9 |
| COCCOc1ccc(N2CCN(C(=O)C(C)(c3ccccc3)n3ncc4c3nc(N)n3nc(-c5nccnc5C)nc43)CC2)cc1 (stereo not drawn) [Compound A95, 2-(5-amino-2-(3-methylpyrazin-2-yl)-7H-pyrazolo[4,3-e][1,2,4]triazolo[1,5-c]pyrimidin-7-yl)-1-(4-(4-(2-methoxyethoxy)phenyl)piperazin-1-yl)-2-phenylpropan-1-one] | 31.1 |
| COCCOc1ccc(N2CCN(C(=O)C(c3ccc(F)cc3)n3ncc4c3nc(N)n3nc(-c5ccco5)nc43)CC2)cc1 (stereo not drawn) [Compound A28, 2-(5-amino-2-(furan-2-yl)-7H-pyrazolo[4,3-e][1,2,4]triazolo[1,5-c]pyrimidin-7-yl)-2-(4-fluorophenyl)-1-(4-(4-(2-methoxyethoxy)phenyl)piperazin-1-yl)ethan-1-one] | 7.6 |
| COCCOc1ccc(N2CCN(C(=O)[C@@](C)(c3ccccc3)n3ncc4c3nc(N)n3nc(-c5ccco5)nc43)CC2)cc1F [Compound A66b, (R)-2-(5-amino-2-(furan-2-yl)-7H-pyrazolo[4,3-e][1,2,4]triazolo[1,5-c]pyrimidin-7-yl)-1-(4-(3-fluoro-4-(2-methoxyethoxy)phenyl)piperazin-1-yl)-2-phenylpropan-1-one] | 3.3 |
| CCCCC(C(=O)N1CCN(c2ccc(OCCOCCOC)cc2)CC1)n1ncc2c1nc(N)n1nc(-c3ccco3)nc21 (single isomer, unassigned) [Compound A11b] | 121 |

The next lines start with the values.

| IC50 [nM] | Compound |
| --- | --- |
| 132 | CCCC(C(=O)N1CCN(c2ccc(OCCOC)cc2)CC1)n1cc2c(nc(N)n3nc(-c4ccco4)nc23)n1 (stereo not drawn) [Compound C5, 2-(5-amino-2-(furan-2-yl)-8H-pyrazolo[4,3-e][1,2,4]triazolo[1,5-c]pyrimidin-8-yl)-1-(4-(4-(2-methoxyethoxy)phenyl)piperazin-1-yl)pentan-1-one] |
| 88.4 | COCCOc1ccc(N2CCN(C(=O)C(CC(C)C)n3cc4c(nc(N)n5nc(-c6ccco6)nc45)n3)CC2)cc1 (stereo not drawn) [Compound C17, 2-(5-amino-2-(furan-2-yl)-8H-pyrazolo[4,3-e][1,2,4]triazolo[1,5-c]pyrimidin-8-yl)-1-(4-(4-(2-methoxyethoxy)phenyl)piperazin-1-yl)-4-methylpentan-1-one] |
| 2.9 | Nc1nc2c(cnn2C(C(=O)N2CCCc3ccccc32)c2ccccc2)c2nc(-c3ccco3)nn12 (stereo not drawn) [Compound B4, 2-(5-amino-2-(furan-2-yl)-7H-pyrazolo[4,3-e][1,2,4]triazolo[1,5-c]pyrimidin-7-yl)-1-(3,4-dihydroquinolin-1(2H)-yl)-2-phenylethan-1-one] |
| 23.7 | CC1(O)CCN(C(=O)C(C)(c2ccccc2)n2ncc3c2nc(N)n2nc(-c4ccco4)nc32)CC1 (stereo not drawn) [Compound B25, 2-(5-amino-2-(furan-2-yl)-7H-pyrazolo[4,3-e][1,2,4]triazolo[1,5-c]pyrimidin-7-yl)-1-(4-hydroxy-4-methylpiperidin-1-yl)-2-phenylpropan-1-one] |
| 111 | CC(C(=O)N1CCc2ccccc2C1)(c1ccccc1)n1ncc2c1nc(N)n1nc(-c3ccco3)nc21 (stereo not drawn) [Compound B18, 2-(5-amino-2-(furan-2-yl)-7H-pyrazolo[4,3-e][1,2,4]triazolo[1,5-c]pyrimidin-7-yl)-1-(3,4-dihydroisoquinolin-2(1H)-yl)-2-phenylpropan-1-one] |
| 1.3 | Cc1ccc2c(c1)CN(C(=O)C(c1ccccc1)n1ncc3c1nc(N)n1nc(-c4ccco4)nc31)CC2 (stereo not drawn) [Compound B17, 2-(5-amino-2-(furan-2-yl)-7H-pyrazolo[4,3-e][1,2,4]triazolo[1,5-c]pyrimidin-7-yl)-1-(7-methyl-3,4-dihydroisoquinolin-2(1H)-yl)-2-phenylethan-1-one] |
| 2.2 | Nc1nc2c(cnn2C(C(=O)N2CCc3ccc(F)cc3C2)c2ccccc2)c2nc(-c3ccco3)nn12 (stereo not drawn) [Compound B11, 2-(5-amino-2-(furan-2-yl)-7H-pyrazolo[4,3-e][1,2,4]triazolo[1,5-c]pyrimidin-7-yl)-1-(7-fluoro-3,4-dihydroisoquinolin-2(1H)-yl)-2-phenylethan-1-one] |
| 4.9 | COCCOc1ccc(N2CCN(C(=O)C(C3CC3)n3cc4c(nc(N)n5nc(-c6ccco6)nc45)n3)CC2)cc1 (stereo not drawn) [Compound C16, 2-(5-amino-2-(furan-2-yl)-8H-pyrazolo[4,3-e][1,2,4]triazolo[1,5-c]pyrimidin-8-yl)-2-cyclopropyl-1-(4-(4-(2-methoxyethoxy)phenyl)piperazin-1-yl)ethan-1-one] |
| 12.8 | COCCOCCOc1ccc(N2CCN(C(=O)C(C3CC3)n3cc4c(nc(N)n5nc(-c6ccco6)nc45)n3)CC2)cc1 (stereo not drawn) [Compound C22, 2-(5-amino-2-(furan-2-yl)-8H-pyrazolo[4,3-e][1,2,4]triazolo[1,5-c]pyrimidin-8-yl)-2-cyclopropyl-1-(4-(4-(2-(2-methoxyethoxy)ethoxy)phenyl)piperazin-1-yl)ethan-1-one] |
